From patent US20250326753A1, “DUAL CXCR4-BTK INHIBITORS” (X4 Pharmaceuticals, Inc., priority 2022, published 2025)
Where two headings read alike, the source gives them in different places.

Key:
ARAF YDYD = biological target: T1, ARAF YDYD (Homo sapiens, UniProt P10398, Y301D/Y302D); experiment: PanQinase kinase panel: ARAF YDYD; format: biochemical; conditions: read-out: INHIBITORY EFFECT @ 1 uM: ARAF YDYD
T1 construct: purchased Reaction Biology Europe GmbH
T1 sequence (P10398 1-606 Y301D/Y302D): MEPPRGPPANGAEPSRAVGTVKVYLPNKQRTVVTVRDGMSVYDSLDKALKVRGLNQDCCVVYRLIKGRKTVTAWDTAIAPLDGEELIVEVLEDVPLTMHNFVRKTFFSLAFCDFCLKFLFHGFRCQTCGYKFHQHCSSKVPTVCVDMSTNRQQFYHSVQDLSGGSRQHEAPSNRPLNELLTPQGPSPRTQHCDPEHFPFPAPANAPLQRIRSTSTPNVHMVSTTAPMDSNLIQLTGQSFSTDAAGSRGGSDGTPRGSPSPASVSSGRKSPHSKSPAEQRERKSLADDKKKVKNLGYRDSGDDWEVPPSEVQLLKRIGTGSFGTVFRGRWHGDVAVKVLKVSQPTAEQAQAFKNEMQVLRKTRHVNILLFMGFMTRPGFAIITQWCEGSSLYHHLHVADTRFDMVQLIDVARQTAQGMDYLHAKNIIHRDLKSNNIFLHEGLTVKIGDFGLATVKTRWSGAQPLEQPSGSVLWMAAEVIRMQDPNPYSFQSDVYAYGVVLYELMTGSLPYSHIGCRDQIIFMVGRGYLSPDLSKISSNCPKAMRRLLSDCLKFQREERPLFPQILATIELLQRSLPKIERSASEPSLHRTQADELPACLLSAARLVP
Description: (§1) Screening procedures were performed in accordance with the company's on-line protocol [accessed on-line Mar.
(§2) For each kinase, the median value of the cpm of three wells was defined as “low control” (n=3). This value reflects unspecific binding of radioactivity to the plate in the absence of a protein kinase but in the presence of the substrate. Additionally, for each kinase the median value of the cpm of three other wells was taken as the “high control,” i.e. full activity in the absence of any inhibitor (n=3). The difference between high and low control of each enzyme was taken as 100% activity.
(§3) As part of the data evaluation the low control of each kinase was subtracted from the high control value as well as from their corresponding “compound values”. The residual activity (in %) for each compound well was calculated by using the following formula: Res. Activity (%)=100×[(signal of compound−low control)/(high control−low control)].

TRKC = biological target: T2, TRKC (Homo sapiens, UniProt Q16288); experiment: PanQinase kinase panel: TRKC; format: biochemical; conditions: read-out: INHIBITORY EFFECT @ 1 uM: TRKC
T2 construct: purchased Reaction Biology Europe GmbH
Description: as §1, §2, §3

Ramos cell line = Ramos cell line viability assay (CellTiter-Glo, 72 hr); format: cell-based; conditions: Homo sapiens
Description: Inhibition of non-Hodgkin lymphoma B-cell proliferation by compounds of the present invention was evaluated in a Ramos cell line. Ramos is a B lymphocyte cell line that was derived from a patient with Burkitt's Lymphoma.
Cell viability was analyzed with the CellTiter-Glo® Luminescent Cell Viability Assay Kit (G7572, Promega), according to the manufacturer's instruction. Cells were seeded into a 96-well/384-well plate and then incubated in 5% CO2 at 37° C. overnight. Compounds were added to the cells, with 9-10 dose points in duplicates in 3-fold dilution from a top concentration of 30 μM, and incubated in 5% CO2 at 37° C. for 72 hr. The 96-well/384-well plate was equilibrated at room temperature for 30 min. 50 μl/25 μl of CellTiter-Glo® Reagent was added to each well and mixed for 2 min on an orbital shaker to induce cell lysis. The 96-well/384-well plate was incubated at room temperature for 10 min to stabilize luminescent signal. Luminescence was detected on a PerkinElmer EnVision Multimode Plate Reader as relative luminescence units (RLU).

[1] = biological target: T3, BTK (Bruton tyrosine kinase) (Homo sapiens, UniProt Q06187); experiment: BTK screening assay (33PanQinase Activity Assay, radiometric); format: biochemical; conditions: Inhibition of BTK, radiometric 33PanQinase Activity Assay, 3 μM ATP, 10 concentrations in singlicate, top 10 μM; read-out: 33PanQinase ® Radiometric IC50
T3 construct: GST or His (the text leaves open which); purchased Reaction Biology Europe GmbH Lot 012,11; host or cells: Sf9 insect cells or E. coli (not resolved)

[2] = class, read-out: Ramos viability IC50

T3 sequence (Q06187 whole entry): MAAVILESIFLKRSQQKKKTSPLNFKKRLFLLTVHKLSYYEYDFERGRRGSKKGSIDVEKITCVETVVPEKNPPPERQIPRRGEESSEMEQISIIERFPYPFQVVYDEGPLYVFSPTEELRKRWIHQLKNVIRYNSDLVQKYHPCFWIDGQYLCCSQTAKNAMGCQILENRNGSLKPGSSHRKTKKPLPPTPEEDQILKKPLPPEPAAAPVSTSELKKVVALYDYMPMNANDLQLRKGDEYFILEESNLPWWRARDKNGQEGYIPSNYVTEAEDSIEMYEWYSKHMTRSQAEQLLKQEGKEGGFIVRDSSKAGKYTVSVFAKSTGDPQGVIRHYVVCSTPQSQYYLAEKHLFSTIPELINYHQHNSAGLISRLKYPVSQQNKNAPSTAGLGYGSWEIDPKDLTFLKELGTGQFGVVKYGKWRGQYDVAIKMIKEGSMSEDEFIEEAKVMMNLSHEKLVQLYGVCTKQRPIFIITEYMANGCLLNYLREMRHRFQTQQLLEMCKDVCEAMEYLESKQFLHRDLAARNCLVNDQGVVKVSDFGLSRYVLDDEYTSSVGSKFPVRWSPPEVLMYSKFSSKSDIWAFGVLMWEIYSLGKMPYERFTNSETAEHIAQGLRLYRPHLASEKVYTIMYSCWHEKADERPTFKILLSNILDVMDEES
T2 sequence (Q16288 32-839): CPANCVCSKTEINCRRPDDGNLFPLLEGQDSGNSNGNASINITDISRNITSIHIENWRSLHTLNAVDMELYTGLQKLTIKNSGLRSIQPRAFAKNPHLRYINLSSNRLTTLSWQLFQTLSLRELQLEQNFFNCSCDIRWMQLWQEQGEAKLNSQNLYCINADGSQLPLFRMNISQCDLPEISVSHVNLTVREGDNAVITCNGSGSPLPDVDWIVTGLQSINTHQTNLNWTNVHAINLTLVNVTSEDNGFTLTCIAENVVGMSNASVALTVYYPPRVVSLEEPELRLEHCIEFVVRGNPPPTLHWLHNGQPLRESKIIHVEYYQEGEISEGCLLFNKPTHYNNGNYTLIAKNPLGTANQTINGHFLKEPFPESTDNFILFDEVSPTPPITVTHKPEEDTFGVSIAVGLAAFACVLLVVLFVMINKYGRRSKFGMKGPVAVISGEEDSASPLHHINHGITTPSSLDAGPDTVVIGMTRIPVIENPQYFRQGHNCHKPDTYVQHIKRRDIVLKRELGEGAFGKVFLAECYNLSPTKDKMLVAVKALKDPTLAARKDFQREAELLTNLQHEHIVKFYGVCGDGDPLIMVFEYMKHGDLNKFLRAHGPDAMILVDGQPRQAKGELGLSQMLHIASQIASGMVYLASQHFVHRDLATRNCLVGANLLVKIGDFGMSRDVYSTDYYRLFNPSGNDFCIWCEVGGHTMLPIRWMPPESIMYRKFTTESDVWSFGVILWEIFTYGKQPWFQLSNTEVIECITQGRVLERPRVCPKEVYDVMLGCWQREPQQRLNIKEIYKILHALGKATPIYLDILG

IC50 [1]	SMILES	inhibition at 1 µM (ARAF YDYD)	inhibition at 1 µM (TRKC)	IC50 (Ramos cell line; [2])	IC50 (Ramos cell line; read-out: IC50)
–	O=C(c1ccc(Oc2ccccc2)cc1Cl)c1c[nH]c2ncnc(N[C@@H]3CC[C@@H](CO)OC3)c12 [ARQ-531, (2-chloro-4-phenoxyphenyl) (4-(((3R,6S)-6-(hydroxymethyl)tetrahydro-2H-pyran-3-yl)amino)-7H-pyrrolo[2,3-d]pyrimidin-5-yl) methanone]	70 to 89%	< 50%	–	–
1 to 100 nM	Cc1cc(-c2ccnc(Nc3cnn(CCN4[C@@H](c5ncccc5C)CCC[C@H]4c4ncccc4C)c3)n2)ccc1CNC(=O)N1CC(OC(C)C)C1 [Compound I-11]	–	–	–	–
1 to 100 nM	Cc1cccnc1[C@H]1CCC[C@@H](c2ncccc2C)N1CCCCNC(=O)[C@@H]1CC[C@@H](Nc2ncnc3[nH]cc(C(=O)c4ccc(Oc5ccccc5)cc4Cl)c23)CO1 [Compound I-16]	–	–	1000 to 1500 nM	1480 nM
1 to 100 nM	Cc1cccnc1[C@H]1CCC[C@@H](c2ncccc2C)N1CCCCNC(=O)OC[C@@H]1CC[C@@H](Nc2ncnc3[nH]cc(C(=O)c4ccc(Oc5ccccc5)cc4Cl)c23)CO1 [Compound I-18]	–	–	1000 to 1500 nM	1330 nM
–	COc1ccc(F)cc1C(=O)NCc1ccc(-c2nn([C@@H](C)C(F)(F)F)c(N)c2C(N)=O)cc1 [LOXO-305, pirtobrutinib]	< 50%	50 to 69%	–	–
–	C=CC(=O)N1CCC([C@@H]2CCNc3c(C(N)=O)c(-c4ccc(Oc5ccccc5)cc4)nn32)CC1 [Zanubrutinib, (7S)-2-(4-phenoxyphenyl)-7-(1-prop-2-enoylpiperidin-4-yl)-4,5,6,7-tetrahydropyrazolo[1,5-a]pyrimidine-3-carboxamide]	< 50%	< 50%	≥ 4000 nM	11900 nM

SMILES	IC50 [1]	inhibition at 1 µM (ARAF YDYD)	inhibition at 1 µM (TRKC)	IC50 (Ramos cell line; [2])	IC50 (Ramos cell line; read-out: IC50)
Cc1cccnc1[C@H]1CCC[C@@H](c2ncccc2C)N1CCN1CCN(C(=O)c2ccc(-c3cc4c(-c5cccc(NC(=O)c6ccccc6)c5C)ncnc4[nH]3)cc2)CC1 [Compound I-10, N-(3-(6-(4-(4-(2-((2R,6S)-2,6-bis(3-methylpyridin-2-yl)piperidin-1-yl)ethyl)piperazine-1-carbonyl)phenyl)-7H-pyrrolo[2,3-d]pyrimidin-4-yl)-2-methylphenyl)benzamide]	1 to 100 nM	< 50%	< 50%	2000 to 4000 nM	2670 nM
